Measured values published in ChEMBL document CHEMBL1137226, “Structure modifications of 6-aminoquinolones with potent anti-HIV activity” (J Med Chem, 2004).
Converted amounts (≈) assume the structure as drawn.

How the values were obtained:
MT4 [1] = test: Concentration of compound that reduces the viability of mock-infected MT-4 cells by 50%; type: functional; conditions: Homo sapiens
MT4 [2] = test: Maximum protection (%) of MT-4 cells from HIV-2 (ROD) induced cytopathogenicity; value ranges from 40-42%; type: functional, Homo sapiens
MT4 [3] = test: Maximum protection (%) of MT-4 cells from HIV-1 (IIIB) induced cytopathogenicity; value ranges from 29-37%; type: functional, Homo sapiens
MT4 [4] = test: Concentration required for protection of MT-4 cells from HIV-1 (IIIB) induced cytopathogenicity in MTT assay; type: functional, cell-based; conditions: Homo sapiens
MT4 [5] = test: Concentration required for protection of MT-4 cells from HIV-2 (ROD) induced cytopathogenicity in MTT assay; type: functional, cell-based; conditions: Homo sapiens
MT4 [6] = test: Selectivity index towards HIV-2 (ROD) in MT-4 cells; type: functional, Homo sapiens
MT4 [7] = test: Selectivity index towards HIV-1 (IIIB) in MT-4 cells; type: functional, Homo sapiens
MT4 [8] = test: Maximum protection (%) of MT-4 cells from HIV-2 (ROD) induced cytopathogenicity; type: functional, Homo sapiens
MT4 [9] = test: Maximum protection (%) of MT-4 cells from HIV-1 (IIIB) induced cytopathogenicity; value ranges from 16-36%; type: functional, Homo sapiens
MT4 [10] = test: Maximum protection (%) of MT-4 cells from HIV-2 (ROD) induced cytopathogenicity; value ranges from 21-26%; type: functional, Homo sapiens
MT4 [11] = test: Maximum protection (%) of MT-4 cells from HIV-1 (IIIB) induced cytopathogenicity; value ranges from 16-49%; type: functional, Homo sapiens
MT4 [12] = test: Maximum protection (%) of MT-4 cells from HIV-2 (ROD) induced cytopathogenicity; value ranges from 26-27%; type: functional, Homo sapiens
MT4 [13] = test: Maximum protection (%) of MT-4 cells from HIV-1 (IIIB) induced cytopathogenicity; value ranges from 11-24%; type: functional, Homo sapiens
MT4 [14] = test: Maximum protection (%) of MT-4 cells from HIV-1 (IIIB) induced cytopathogenicity; value ranges from 5-9%; type: functional, Homo sapiens
MT4 [15] = test: Maximum protection (%) of MT-4 cells from HIV-1 (IIIB) induced cytopathogenicity; value ranges from 2-18%; type: functional, Homo sapiens
CCRF-CEM [16] = test: Concentration of compound that reduces the viability of mock-infected CEM cells by 50%; type: functional; conditions: Homo sapiens
MT4 [17] = test: Maximum protection (%) of MT-4 cells from HIV-2 (ROD) induced cytopathogenicity; value ranges from 55-58%; type: functional, Homo sapiens
MT4 [18] = test: Maximum protection (%) of MT-4 cells from HIV-1 (IIIB) induced cytopathogenicity; value ranges from 32-62%; type: functional, Homo sapiens
[19] = Concentration of compound required for reduction of p24 production in HIV-1 (IIIB) infected peripheral blood mononuclear cells; type: functional; conditions: Homo sapiens
CCRF-CEM [20] = test: Concentration of compound required for protection of CEM cells from HIV-2 (ROD) induced cytopathogenicity; type: functional, cell-based; conditions: Homo sapiens
CCRF-CEM [21] = test: Concentration of compound required for protection of CEM cells from HIV-1 (IIIB) induced cytopathogenicity; type: functional, cell-based; conditions: Homo sapiens
[22] = Concentration of compound that reduces the viability of mock-infected peripheral blood mononuclear cells by 50%; type: functional; conditions: Homo sapiens
CCRF-CEM [23] = test: Selectivity index towards HIV-2 (ROD) in CEM cells; type: functional, Homo sapiens
CCRF-CEM [24] = test: Selectivity index towards HIV-1 (IIIB) in CEM cells; type: functional, Homo sapiens
[25] = Selectivity index towards HIV-1 (IIIB) in peripheral blood mononuclear cells; type: functional, Homo sapiens
MT4 [26] = test: Maximum protection (%) of MT-4 cells from HIV-2 (ROD) induced cytopathogenicity; value ranges from 29-63%; type: functional, Homo sapiens
MT4 [27] = test: Maximum protection (%) of MT-4 cells from HIV-1 (IIIB) induced cytopathogenicity; value ranges from 29-40%; type: functional, Homo sapiens
MT4 [28] = test: Maximum protection (%) of MT-4 cells from HIV-1 (IIIB) induced cytopathogenicity; value ranges from 9-24%; type: functional, Homo sapiens
MT4 [29] = test: Maximum protection (%) of MT-4 cells from HIV-1 (IIIB) induced cytopathogenicity; value ranges from 5-6%; type: functional, Homo sapiens
MT4 [30] = test: Maximum protection (%) of MT-4 cells from HIV-2 (ROD) induced cytopathogenicity; value ranges from 40-43%; type: functional, Homo sapiens
MT4 [31] = test: Maximum protection (%) of MT-4 cells from HIV-1 (IIIB) induced cytopathogenicity; value ranges from 53-59%; type: functional, Homo sapiens
MT4 [32] = test: Maximum protection (%) of MT-4 cells from HIV-1 (IIIB) induced cytopathogenicity; value ranges from 8-9%; type: functional, Homo sapiens
MT4 [33] = test: Maximum protection (%) of MT-4 cells from HIV-1 (IIIB) induced cytopathogenicity; value ranges from 14-20%; type: functional, Homo sapiens
MT4 [34] = test: Maximum protection (%) of MT-4 cells from HIV-1 (IIIB) induced cytopathogenicity; value ranges from 3-8%; type: functional, Homo sapiens
MT4 [35] = test: Maximum protection (%) of MT-4 cells from HIV-1 (IIIB) induced cytopathogenicity; value ranges from 4-13%; type: functional, Homo sapiens
MT4 [36] = test: Maximum protection (%) of MT-4 cells from HIV-1 (IIIB) induced cytopathogenicity; value ranges from 88-115%; type: functional, Homo sapiens
MT4 [37] = test: Maximum protection (%) of MT-4 cells from HIV-2 (ROD) induced cytopathogenicity; value ranges from 22-24%; type: functional, Homo sapiens
MT4 [38] = test: Maximum protection (%) of MT-4 cells from HIV-1 (IIIB) induced cytopathogenicity; value ranges from 34-37%; type: functional, Homo sapiens
MT4 [39] = test: Maximum protection (%) of MT-4 cells from HIV-2 (ROD) induced cytopathogenicity; value ranges from 27-33%; type: functional, Homo sapiens
MT4 [40] = test: Maximum protection (%) of MT-4 cells from HIV-1 (IIIB) induced cytopathogenicity; value ranges from 32-39%; type: functional, Homo sapiens
MT4 [41] = test: Maximum protection (%) of MT-4 cells from HIV-1 (IIIB) induced cytopathogenicity; value ranges from 10-27%; type: functional, Homo sapiens
MT4 [42] = test: Maximum protection (%) of MT-4 cells from HIV-1 (IIIB) induced cytopathogenicity; value ranges from 2-14%; type: functional, Homo sapiens

| SMILES | CC50 (MT4 [1]) [µg/mL] | EC50 (MT4 [4]) [µg/mL] | EC50 (MT4 [5]) [µg/mL] | Selectivity index (MT4 [6]) | Selectivity index (MT4 [7]) | Protection (MT4 [8]) [%] | further results |
| --- | --- | --- | --- | --- | --- | --- | --- |
| Cn1cc(C(=O)O)c(=O)c2cc(N)c(N3CCN(c4ccccn4)CC3)c(F)c21 | 6.08 (≈ 15.3 µM) | > 6.08 | > 6.08 | <1 | <1 |  | Protection (MT4 [2]): <42%; Protection (MT4 [3]): <37% |
| Nc1cc2c(=O)c(C(=O)O)cn(C3CC3)c2cc1N1CCN(c2nc3ccccc3s2)CC1 | 0.07 (≈ 0.152 µM) | > 0.07 | > 0.07 | <1 | <1 | 42 | Protection (MT4 [9]): <36% |
| COc1c(N2CCN(c3ccccn3)CC2)c(N)cc2c(=O)c(C(=O)O)cn(C)c12 | 4.28 (≈ 10.5 µM) | > 4.28 | > 4.28 | <1 | <1 |  | Protection (MT4 [10]): <26%; Protection (MT4 [11]): <49% |
| CCn1cc(C(=O)O)c(=O)c2cc(N)c(N3CCN(c4ccccn4)CC3)cc21 | 2.2 (≈ 5.59 µM) | > 2.2 | > 2.2 | <1 | <1 |  | Protection (MT4 [12]): <27%; Protection (MT4 [13]): <24% |
| CC(=O)c1ccc(N2CCN(c3cc4c(cc3N)c(=O)c(C(=O)O)cn4C)CC2)cc1 | 0.15 (≈ 0.357 µM) | > 0.15 | > 0.15 | <1 | <1 | 13 | Protection (MT4 [14]): <9% |
| Nc1cc2c(=O)c(C(=O)O)cn(N3CCN(c4ccccn4)CC3)c2cc1N1CCN(c2nc3ccccc3s2)CC1 | 0.24 (≈ 0.412 µM) | > 0.24 | > 0.24 | <1 | <1 | 0 | Protection (MT4 [15]): <18% |
| Nc1cc2c(=O)c(C(=O)O)cn(N3CCN(c4ccccn4)CC3)c2cc1N1CCN(c2ccccn2)CC1 | 58.5 (≈ 111 µM) | ≥ 17.4 | 19.2 (≈ 36.5 µM) | 3 | <=3.4 |  | CC50 (CCRF-CEM [16]): > 100 µg/mL; Protection (MT4 [17]): <58%; Protection (MT4 [18]): <62%; EC50 [19]: 2.24 µg/mL (≈ 4.25 µM); EC50 (CCRF-CEM [20]): 12 µg/mL (≈ 22.8 µM); EC50 (CCRF-CEM [21]): 9.4 µg/mL (≈ 17.9 µM); CC50 [22]: ≥ 43.3 µg/mL; Selectivity index (CCRF-CEM [23]): >8; Selectivity index (CCRF-CEM [24]): >11; Selectivity index [25]: >=19 |
| Cc1nnc(N2CCN(c3cc4c(cc3N)c(=O)c(C(=O)O)cn4C)CC2)s1 | > 125 | > 125 | ≥ 10.3 | <=12.1 | <1 |  | Protection (MT4 [26]): <63%; Protection (MT4 [27]): <40% |
| COc1ccccc1N1CCN(c2cc3c(cc2N)c(=O)c(C(=O)O)cn3C2CC2)CC1 | 10.3 (≈ 23.8 µM) | > 10.3 | > 10.3 | <1 | <1 | 10 | Protection (MT4 [28]): <24% |
| Nc1cc2c(=O)c(C(=O)O)cn(-c3ccc(-c4ccccc4)cc3)c2cc1N1CCN(c2nc3ccccc3s2)CC1 | 0.67 (≈ 1.17 µM) | > 0.67 | > 0.67 | <1 | <1 | 1 | Protection (MT4 [29]): <6% |
| Cn1cc(C(=O)O)c(=O)c2ccc(N3CCN(c4ccccn4)CC3)cc21 | 65.5 (≈ 180 µM) | 19.2 (≈ 52.7 µM) | > 65.5 | <1 | 3.4 |  | CC50 (CCRF-CEM [16]): > 100 µg/mL; Protection (MT4 [30]): <43%; Protection (MT4 [31]): <59%; EC50 [19]: 1.37 µg/mL (≈ 3.76 µM); EC50 (CCRF-CEM [20]): 1.8 µg/mL (≈ 4.94 µM); EC50 (CCRF-CEM [21]): 1.2 µg/mL (≈ 3.29 µM); CC50 [22]: > 100 µg/mL; Selectivity index (CCRF-CEM [23]): >56; Selectivity index (CCRF-CEM [24]): >83; Selectivity index [25]: >73 |
| COc1ccccc1N1CCN(c2ccc3c(=O)c(C(=O)O)cn(C)c3c2)CC1 | > 125 | > 125 | > 125 |  |  | 6 | Protection (MT4 [32]): <9% |
| Nc1cc2c(=O)c(C(=O)O)cn(-c3nc4ccccc4s3)c2cc1N1CCN(c2ccccn2)CC1 | 9.13 (≈ 18.3 µM) | > 9.13 | > 9.13 | <1 | <1 | 21 | Protection (MT4 [33]): <20% |
| Cn1cc(C(=O)O)c(=O)c2cc([N+](=O)[O-])c(N3CCN(c4ccccn4)CC3)c(F)c21 | 29.6 (≈ 69.2 µM) | > 29.6 | > 29.6 | <1 | <1 | 4 | Protection (MT4 [34]): <8% |
| Cn1cc(C(=O)O)c(=O)c2cc([N+](=O)[O-])c(N3CCN(c4ccccn4)CC3)cc21 | 10.1 (≈ 24.6 µM) | > 10.1 | > 10.1 | <1 | <1 | 5 | Protection (MT4 [35]): <13% |
| Nc1cc2c(=O)c(C(=O)O)cn(C3CC3)c2cc1N1CCN(c2cccc(C(F)(F)F)c2)CC1 | 3.83 (≈ 8.11 µM) | 0.27 (≈ 0.571 µM) | 0.38 (≈ 0.804 µM) | 10.1 | 14.2 | 71 | CC50 (CCRF-CEM [16]): 9 µg/mL (≈ 19 µM); Protection (MT4 [36]): <115%; EC50 [19]: 1.09 µg/mL (≈ 2.31 µM); EC50 (CCRF-CEM [20]): 0.8 µg/mL (≈ 1.69 µM); EC50 (CCRF-CEM [21]): 0.8 µg/mL (≈ 1.69 µM); CC50 [22]: 4.63 µg/mL (≈ 9.8 µM); Selectivity index (CCRF-CEM [23]): 11; Selectivity index (CCRF-CEM [24]): 11; Selectivity index [25]: 4 |
| Nc1cc2c(=O)c(C(=O)O)cn(-c3ccc(F)cc3)c2cc1N1CCN(c2ccccn2)CC1 | 22 (≈ 47.9 µM) | > 22 | > 22 | <1 | <1 |  | Protection (MT4 [37]): <24%; Protection (MT4 [38]): <37% |
| Cn1cc(C(=O)O)c(=O)c2cnc(N3CCN(c4ccccn4)CC3)cc21 | 67.4 (≈ 184 µM) | > 67.4 | > 67.4 | <1 | <1 |  | Protection (MT4 [39]): <33%; Protection (MT4 [40]): <39% |
| Cn1cc(C(=O)O)c(=O)c2cc(N)c(N3CCN(C4=Nc5ccccc5SC4)CC3)cc21 | 2.14 (≈ 4.76 µM) | > 2.14 | > 2.14 | <1 | <1 | 15 | Protection (MT4 [41]): <27% |
| Nc1cc2c(=O)c(C(=O)O)cn(C3CCN(Cc4ccccc4)CC3)c2cc1N1CCN(c2ccccn2)CC1 | 2.36 (≈ 4.38 µM) | > 2.36 | > 2.36 | <1 | <1 | 5 | Protection (MT4 [42]): <14% |
